Measurements published in ChEMBL document CHEMBL4033623, “Synthesis of xanthone derivatives and studies on the inhibition against cancer cells growth and synergistic combinations of them” (Eur J Med Chem, 2017).
Active and inactive are the calls of the source. No cut-off for these calls is given here.

Columns and labels:
HepG2 [1] = assay: Antiproliferative activity against human HepG2 cells after 48 hrs by CCK8 assay; format: functional, cell-based; conditions: HepG2, 48 h
MDA-MB-231 [2] = assay: Antiproliferative activity against human MDA-MB-231 cells after 48 hrs by CCK8 assay; format: functional, cell-based; conditions: MDA-MB-231, 48 h
COLO 320 [3] = assay: Antiproliferative activity against human COLO320 cells after 48 hrs by CCK8 assay; format: functional, cell-based; conditions: COLO 320, 48 h
K562 [4] = assay: Antiproliferative activity against human K562 cells after 48 hrs by CCK8 assay; format: functional, cell-based; conditions: K562, 48 h
MCF7 [5] = assay: Antiproliferative activity against human MCF7 cells after 48 hrs by CCK8 assay; format: functional, cell-based; conditions: MCF7, 48 h
MDA-MB-231 [6] = assay: Induction of apoptosis in human MDA-MB-231 cells assessed as viable cells at 48 uM after 48 hrs by Annexin-V/FITC/PI staining based flow cytometry (reference value: 88.78 %); format: functional; conditions: MDA-MB-231, 48 h, read-out: Activity
MDA-MB-231 [7] = assay: Increase in p53 level in human MDA-MB-231 cells at 24 to 96 uM after 48 hrs by Western blot analysis; format: functional, cell-based
MDA-MB-231 [8] = assay: Induction of apoptosis in human MDA-MB-231 cells assessed as necrotic cells at 24 uM after 48 hrs by Annexin-V/FITC/PI staining based flow cytometry (reference value: 10.01 %); format: functional
MDA-MB-231 [9] = assay: Induction of apoptosis in human MDA-MB-231 cells assessed as necrotic cells at 96 uM after 48 hrs by Annexin-V/FITC/PI staining based flow cytometry (reference value: 10.01 %); format: functional
MDA-MB-231 [10] = assay: Decrease in caspase-3 level in human MDA-MB-231 cells at 24 to 96 uM after 48 hrs by Western blot analysis; format: functional, cell-based
MDA-MB-231 [11] = assay: Induction of apoptosis in human MDA-MB-231 cells after 48 hrs by Annexin-V/FITC/PI staining based flow cytometry; format: functional, cell-based
MDA-MB-231 [12] = assay: Induction of apoptosis in human MDA-MB-231 cells assessed as early apoptotic cells at 24 uM after 48 hrs by Annexin-V/FITC/PI staining based flow cytometry (reference value: 0.03 %); format: functional
MDA-MB-231 [13] = assay: Induction of apoptosis in human MDA-MB-231 cells assessed as late apoptotic cells at 48 uM after 48 hrs by Annexin-V/FITC/PI staining based flow cytometry (reference value: 1.18 %); format: functional
MDA-MB-231 [14] = assay: Induction of apoptosis in human MDA-MB-231 cells assessed as viable cells at 24 uM after 48 hrs by Annexin-V/FITC/PI staining based flow cytometry (reference value: 88.78 %); format: functional; conditions: MDA-MB-231, 48 h, read-out: Activity
MDA-MB-231 [15] = assay: Induction of apoptosis in human MDA-MB-231 cells assessed as late apoptotic cells at 96 uM after 48 hrs by Annexin-V/FITC/PI staining based flow cytometry (reference value: 1.18 %); format: functional
MDA-MB-231 [16] = assay: Induction of apoptosis in human MDA-MB-231 cells assessed as increase in cleaved PARP level at 24 to 96 uM after 48 hrs by Western blot analysis; format: functional, cell-based
MDA-MB-231 [17] = assay: Decrease in caspase-9 level in human MDA-MB-231 cells at 24 to 96 uM after 48 hrs by Western blot analysis; format: functional, cell-based
MDA-MB-231 [18] = assay: Cell cycle arrest in human MDA-MB-231 cells assessed as increase in accumulation at G2/M phase at 48 uM after 48 hrs by propidium iodide staining based flow cytometric method relative to control; format: functional
MDA-MB-231 [19] = assay: Induction of apoptosis in human MDA-MB-231 cells assessed as increase in cleaved caspase-3 expression at 24 to 96 uM after 48 hrs by Western blot analysis; format: functional, cell-based
MDA-MB-231 [20] = assay: Induction of apoptosis in human MDA-MB-231 cells assessed as early apoptotic cells at 48 uM after 48 hrs by Annexin-V/FITC/PI staining based flow cytometry (reference value: 0.03 %); format: functional
MDA-MB-231 [21] = assay: Induction of apoptosis in human MDA-MB-231 cells assessed as necrotic cells at 48 uM after 48 hrs by Annexin-V/FITC/PI staining based flow cytometry (reference value: 10.01 %); format: functional
MDA-MB-231 [22] = assay: Decrease in MDM2 level in human MDA-MB-231 cells at 24 to 96 uM after 48 hrs by Western blot analysis; format: functional, cell-based
MDA-MB-231 [23] = assay: Induction of apoptosis in human MDA-MB-231 cells assessed as viable cells at 96 uM after 48 hrs by Annexin-V/FITC/PI staining based flow cytometry (reference value: 88.78 %); format: functional; conditions: MDA-MB-231, 48 h, read-out: Activity
MDA-MB-231 [24] = assay: Induction of apoptosis in human MDA-MB-231 cells assessed as late apoptotic cells at 24 uM after 48 hrs by Annexin-V/FITC/PI staining based flow cytometry (reference value: 1.18 %); format: functional
MDA-MB-231 [25] = assay: Induction of apoptosis in human MDA-MB-231 cells assessed as early apoptotic cells at 96 uM after 48 hrs by Annexin-V/FITC/PI staining based flow cytometry (reference value: 0.03 %); format: functional
MCF7 [26] = assay: Synergistic antiproliferative activity against human MCF7 cells at compound to DMXAA mol ratio of 1:1 after 48 hrs by CCK8 assay; format: functional, cell-based; conditions: MCF7, 48 h
COLO 320 [27] = assay: Synergistic antiproliferative activity against human COLO320 cells at compound to DMXAA mol ratio of 1:1 after 48 hrs by CCK8 assay; format: functional, cell-based; conditions: COLO 320, 48 h
MDA-MB-231 [28] = assay: Synergistic antiproliferative activity against human MDA-MB-231 cells at compound to DMXAA mol ratio of 1:1 after 48 hrs by CCK8 assay; format: functional, cell-based; conditions: MDA-MB-231, 48 h
HepG2 [29] = assay: Synergistic antiproliferative activity against human HepG2 cells at compound to DMXAA mol ratio of 1:1 after 48 hrs by CCK8 assay; format: functional, cell-based; conditions: HepG2, 48 h
K562 [30] = assay: Synergistic antiproliferative activity against human K562 cells at compound to DMXAA mol ratio of 1:1 after 48 hrs by CCK8 assay; format: functional, cell-based; conditions: K562, 48 h

SMILES	IC50 (HepG2 [1])	IC50 (MDA-MB-231 [2])	IC50 (COLO 320 [3])	IC50 (K562 [4])	IC50 (MCF7 [5])	also measured
O=c1c2ccccc2oc2c(O)c(O)ccc12 [3,4-DIHYDROXYXANTHONE]	89.7 µM	124 µM	73 µM	103 µM	93.2 µM	–
COc1ccc2c(=O)c3cc(O)ccc3oc2c1	> 200 µM	> 200 µM	93.7 µM	> 200 µM	23.4 µM	–
O=c1c2cc(Br)ccc2oc2c(O)c(O)ccc12	63.8 µM	83.2 µM	63.1 µM	53.5 µM	104 µM	–
COc1cc(OC)c2c(=O)c3cc(Br)ccc3oc2c1	87.1 µM	87.1 µM	77.1 µM	52.1 µM	43.1 µM	–
Cc1ccc2c(=O)c3cccc(CC(=O)O)c3oc2c1C [VADIMEZAN]	100 µM	48.4 µM	39.5 µM	57.4 µM	54.4 µM	viability at 48 µM (MDA-MB-231 [6]): 65.9%; Activity (MDA-MB-231 [7]): Active; Activity (MDA-MB-231 [8]): 12.09%; Activity (MDA-MB-231 [9]): 21.83%; Activity (MDA-MB-231 [10]): Active; Activity (MDA-MB-231 [11]): Dose-dependent effect; Activity (MDA-MB-231 [12]): 0.53%; Activity (MDA-MB-231 [13]): 17.03%; viability at 24 µM (MDA-MB-231 [14]): 80.7%; Activity (MDA-MB-231 [15]): 14.93%; Activity (MDA-MB-231 [16]): Active; Activity (MDA-MB-231 [17]): Active; Activity (MDA-MB-231 [18]): 25%; Activity (MDA-MB-231 [19]): Active; Activity (MDA-MB-231 [20]): 2.22%; Activity (MDA-MB-231 [21]): 14.88%; Activity (MDA-MB-231 [22]): Active; viability at 96 µM (MDA-MB-231 [23]): 58.8%; Activity (MDA-MB-231 [24]): 6.65%; Activity (MDA-MB-231 [25]): 4.48%
O=c1c2ccccc2oc2ccc(Cl)cc12	62 µM	69.4 µM	96.7 µM	> 200 µM	> 200 µM	–
O=c1c2ccccc2oc2cc(O)ccc12	85.3 µM	93 µM	> 200 µM	> 200 µM	121 µM	–
O=c1c2ccc(O)cc2oc2cc(O)cc(O)c12	124 µM	55.6 µM	105 µM	55.6 µM	112 µM	–
O=c1c2cc(O)ccc2oc2ccc(O)cc12 [EUXANTHONE]	> 200 µM	83.5 µM	91.2 µM	73.5 µM	128 µM	–
O=c1c2ccc(O)cc2oc2c(O)c(O)ccc12	87.3 µM	87.3 µM	77.3 µM	82.3 µM	43.7 µM	–
O=c1c2cc(Br)ccc2oc2c(O)cccc12	82.6 µM	12.5 µM	102 µM	> 200 µM	22.9 µM	–
O=c1c2cc(O)c(O)cc2oc2cccc(O)c12	83.8 µM	65.9 µM	85.1 µM	156 µM	101 µM	–
O=c1c2cc(Cl)ccc2oc2cccc(O)c12	> 200 µM	67.1 µM	> 200 µM	62 µM	53.1 µM	–
O=c1c2cc(O)ccc2oc2c(O)c(O)ccc12	> 200 µM	53.1 µM	83.1 µM	63.1 µM	> 200 µM	–
COc1cc(OC)c2c(=O)c3c(O)cccc3oc2c1	83.8 µM	25.9 µM	25.9 µM	25.1 µM	21.1 µM	–
Cc1ccc2c(=O)c3cccc(O)c3oc2c1	93.8 µM	43.8 µM	53.7 µM	93.5 µM	83.4 µM	–
O=c1c2cc(O)ccc2oc2cc(O)c(O)cc12	63.3 µM	23.5 µM	93.2 µM	73.5 µM	28.1 µM	–
O=c1c2cc(O)ccc2oc2cc(O)cc(O)c12	> 200 µM	25.1 µM	> 200 µM	106 µM	31.2 µM	–
O=c1c2ccc(O)cc2oc2cc(O)ccc12	61.7 µM	31.7 µM	37.7 µM	31.2 µM	91.3 µM	–

These reach a lower IC50 (HepG2 [1]). Values come first.

IC50 (HepG2 [1])	IC50 (MDA-MB-231 [2])	IC50 (COLO 320 [3])	IC50 (K562 [4])	IC50 (MCF7 [5])	SMILES	also measured
32.7 µM	34.7 µM	35.7 µM	34.2 µM	34.3 µM	COc1cc(O)c2c(=O)c3c(OC)cccc3oc2c1	–
11.7 µM	11.6 µM	15.1 µM	45.1 µM	11.2 µM	O=c1c2ccccc2oc2cc(O)cc(O)c12	–
23.7 µM	95.6 µM	55.1 µM	45.1 µM	41.9 µM	O=c1c2ccc(O)cc2oc2c(O)cccc12	–
52.2 µM	32.4 µM	31.5 µM	88.9 µM	92.4 µM	O=c1c2ccc(O)cc2oc2ccc(O)cc12	–
31.2 µM	11.4 µM	11.5 µM	19.4 µM	21.4 µM	COc1cc(OC)c2c(=O)c3cc(Cl)ccc3oc2c1	–
33.8 µM	23.8 µM	23.7 µM	28.5 µM	23.4 µM	O=c1c2cccc(O)c2oc2cc(O)cc(O)c12	–
37.3 µM	57.1 µM	87.5 µM	52.1 µM	13 µM	O=c1c2cc(Cl)ccc2oc2c(O)cccc12	–
43.7 µM	45.6 µM	55.1 µM	45.1 µM	41.2 µM	O=c1c2ccc(O)cc2oc2ccc(Cl)cc12	–
8.7 µM	9.6 µM	12.1 µM	29.1 µM	11.2 µM	COc1cc(OC)c2c(=O)c3ccc(O)cc3oc2c1	IC50 (MCF7 [26]): 14.1 µM; IC50 (COLO 320 [27]): 10.2 µM; IC50 (MDA-MB-231 [28]): 9.13 µM; IC50 (HepG2 [29]): 8.43 µM; IC50 (K562 [30]): 26.2 µM
55.3 µM	33 µM	36.4 µM	60.1 µM	31.6 µM	O=c1c2c(O)cccc2oc2cc(O)cc(O)c12	–
3.2 µM	5.2 µM	15.2 µM	5.2 µM	1.2 µM	O=c1c2cc(Cl)ccc2oc2cc(O)cc(O)c12	IC50 (MCF7 [26]): 1.15 µM; IC50 (COLO 320 [27]): 9.15 µM; IC50 (MDA-MB-231 [28]): 3.1 µM; IC50 (HepG2 [29]): 4.22 µM; IC50 (K562 [30]): 2.27 µM
23.7 µM	23.6 µM	23 µM	13.1 µM	43.2 µM	O=c1c2cc(O)c(O)cc2oc2cc(O)cc(O)c12	–
12.7 µM	8.6 µM	27.1 µM	5.1 µM	4.2 µM	Cc1ccc2c(=O)c3c(O)cc(O)cc3oc2c1	IC50 (MCF7 [26]): 2.06 µM; IC50 (COLO 320 [27]): 22.8 µM; IC50 (MDA-MB-231 [28]): 2.63 µM; IC50 (HepG2 [29]): 8.75 µM; IC50 (K562 [30]): 4.65 µM
23.8 µM	43.8 µM	53.7 µM	43.5 µM	13.4 µM	O=c1c2cc(O)ccc2oc2c(O)cccc12	–
